Reference: ChEMBL document CHEMBL1152008, “N,N-disubstituted benzopyran-4-(N-cyano)carboxamidines, cromakalim analogs with selective activity for guinea pig trachealis” (Bioorg Med Chem Lett, 1993)

Legend:
Format in all cases: functional
Cavia porcellus [1] = species on record: Cavia porcellus; assay: Tested for relaxation of guinea pig trachealis smooth muscle
Rattus norvegicus [2] = species on record: Rattus norvegicus; assay: Tested for relaxation of rat aorta smooth muscle
Cavia porcellus [3] = species on record: Cavia porcellus; assay: Tested for the ability to inhibit spontaneous tone in guinea pig trachealis by 50%, activity expresses as negative logarithm of molar concentration
Rattus norvegicus [4] = species on record: Rattus norvegicus; assay: Tested for relaxation of rat aorta smooth muscle precontracted with 30 mM KCI by 50%, activity expresses as negative logarithm of molar concentration

SMILES	EC50 (Cavia porcellus [3]) [nM]	EC50 (Rattus norvegicus [4]) [nM]	IA (Cavia porcellus [1]) [%]	IA (Rattus norvegicus [2]) [%]
CC1(C)Oc2ccc(C#N)cc2[C@H](N2CCCC2=O)[C@H]1O (single isomer, unassigned) [(-)-CROMAKALIM]	–	–	85.1	74.7
CC(N/C(=N\C#N)Nc1ccncc1)C(C)(C)C (configuration not stated) [PINACIDIL ANHYDROUS]	–	–	97.3	91.9
CC/N=C(/NC#N)C1=CC(C)(C)Oc2ccc([N+](=O)[O-])cc21	170	89.1	85.3	75.1
C/N=C(/NC#N)C1=CC(C)(C)Oc2ccc([N+](=O)[O-])cc21	23.4	15.1	86.5	79.9

Further lines, with some results ahead:

EC50 (Cavia porcellus [3]) [nM]	EC50 (Rattus norvegicus [4]) [nM]	SMILES	IA (Cavia porcellus [1]) [%]	IA (Rattus norvegicus [2]) [%]
178	> 31600	CCN(C)/C(=N\C#N)C1=CC(C)(C)Oc2ccc([N+](=O)[O-])cc21	77.9	–
646	–	C/N=C(/NC#N)C1=CC(C)(C)Oc2ccc(C#N)cc21	86	73
–	> 31600	CN(C)/C(=N\C#N)C1=CC(C)(C)Oc2ccc([N+](=O)[O-])cc21	90.6	–
> 31600	> 31600	CCN(CC)/C(=N\C#N)C1=CC(C)(C)Oc2ccc([N+](=O)[O-])cc21	–	–
